In patent publication US20030143744A1, “Method for the production of cotton somatic embryos” (priority 2000, published 2003):

What was measured:
Assay type in all cases: cell-based, Cotton (Gossypium hirsutum L.)
[1] = system: embryogenic callus / somatic embryos; test: Somatic embryo histodifferentiation on differentiation medium
Protocol: Following callus initiation, calluses were sub-cultured, every 4-5 weeks, to callus initiation medium or to basal medium without growth regulators, either solidified or liquid, agitated (under orbital shaking at 110 rpm) or to the surface of filter paper (Whatman™ n° 1) bridges, inserted into macrowell plates (34 mm in diameter, well), containing 3-4 ml of liquid medium to induce somatic embryogenesis. Liquid cultures were maintained by subculture at 2 week intervals. Primary calli containing embryogenic clumps were sub-cultured to somatic embryo differentiation media. A culture medium similar to embryogenesis callus induction medium was used, but modified to contain 10 mM glutamine (Price and Smith 1979 (Planta 145: 305-307.), Cousins et al. 1991 Aust. J. Plant Physiol. 18: 481-494.), 5.4 μM NAA, 2.5 μM iP and solidified with 0.2% gelrite. The effect of abscisic acid (ABA, 0.0, 0.19, 0.38, 1.9 μM) on somatic embryo histodifferentiation was tested.

[2] = system: epidermal strips of Coker line 312; test: Callus initiation from epidermal strips of Coker line 312; settings: cytokinin at 4.9 μM, medium further supplemented with NAA (10.7 μM); basal region of bract
Protocol: Following disinfection, bracts were soaked in sterile distilled water, for at least 3 h, to facilitate peeling. Epidermal strips were carefully excised from the lower epidermis, using fine forceps under sterile conditions. The enzymatic treatment of epidermal strips was tested for the removal of all contaminating mesophyll and vascular tissues as follows: strips were immersed for 2-3.5 h, in a filter sterilised solution containing Linsmaier & Skoog salts (1965), Cellulysin (0.2% w/v), Hemicellulase (0.2% w/v), polyvinylpyrrolidone (PVP-40, 0.1% w/v) and pH adjusted to 5.5.
Epidermal fragments (3-10 mm size), with or without enzymatic treatment, were placed in Petri dishes (32 mm in diameter) containing 2 ml semi-solid medium, with the cuticle side either in contact with the medium or upwards.
(§1) A basal medium containing Murashige and Skoog ((1962) Physiol Plant 15: 473-497.) salts, Trolinder & Goodin ((1988a) Plant Cell Tiss Org Cult 12: 31-42.) vitamins and glucose (166.5 mM equivalent to 30 g.l^−1) was used throughout the experiments. For callus initiation, basal medium was supplemented with naphthalene acetic acid (NAA, 2.7, 5.4, 10.7 and 21.5 μM) and isopentenyladenine (iP, 1.3, 2.5 and 4.9 μM). In addition, the effects of thidiazuron (tdz), kinetin (kin) and iP, each at a concentration of 4.9 μM, were tested for their effect on callus morphology and development. Callus initiation was evaluated after 3-6 weeks. Media was used as liquid or solidified (geirite 1.6 g.l^−1 plus 7.9 mM MgCl2). Twenty to thirty epidermal strips were cultured per dish.
The effect of shading of the culture dishes on callus initiation was also evaluated. One or two dishes containing a layer of culture medium (2 ml) were placed on the top of dishes containing the cultures. Dishes were incubated on full light (26.3 μmol. m^−2.s^−1) or under reduced light irradiance, respectively, under shade from 1 dish (21.0 μmol. m^−2.s^−1) or shading from two dishes (15.8 μmol. m^−2.s^−1).

[3] = system: both Coker lines (312 and 315); test: Callus initiation, growth and morphology by growth regulators
Protocol: as §1
Epidermal strips were excised from the whole bract of Coker line 315 and cultured on medium containing NAA (2.7, 5.4, 10.7 and 21.5 μM) and iP (1.3, 2.5 and 4.9 μM). Two to four independent experiments were carried out and 1300 epidermal strips were used in these studies.
Callus initiation, growth and morphology from both Coker lines (312 and 315) were influenced by the growth regulators in the callus initiation medium. […] In addition, there were no statistical significant differences in callus induction frequency within the remaining range of treatments tested.

`CC1=CC(=O)CC(C)(C)[C@@]1(O)/C=C/C(C)=C\C(=O)O` [ABA, abscisic acid] was tested, and the somatic embryo differentiation ([1]; ABA 0.0 or 1.9 μM) was “less uniform” and the somatic embryo differentiation ([1]; ABA 0.19-0.38 μM, after 3-4 weeks) was “Synchronised embryo differentiation and improved somatic embryo uniformity”.

`c1coc(CNc2ncnc3[nH]cnc23)c1` [Kin, kinetin] gave a callus induction [2] of 8.6±0.7%.

`O=C(Nc1ccccc1)Nc1cnns1` [Tdz, thidiazuron] was tested, and the callus induction [2] was 31.3±4.5%.

For `CC(C)=CCNc1ncnc2nc[nH]c12` [iP, isopentenyladenine], the callus induction [2] was 36.3±15.8%, the “time to similar size of callus” value ([3]; iP 1.2 μM) was 8 weeks and the “time to macroscopic calluses” value ([3]; iP 4.9 μM) was 4-5 weeks.
